From ChEMBL document CHEMBL1926578, “On a possible neutral charge state for the catalytic dyad in β-secretase when bound to hydroxyethylene transition state analogue inhibitors” (J Med Chem, 2011) come the findings set out here.

As usually defined, the IC50 is the point on the concentration scale where inhibition reaches its midpoint.

Structures are written as SMILES. *1 amine or outer side, *2 acyl side, *3 side chain or, on linkers, in order; H or OH if unused. Where a SMILES comes first, the peptide text is derived from it. [ ]: non-standard residue; d: D form. X1 = CC(C)C[C@H](N[*:1])[C@@H](O)C[C@H](C(=O)[*:2])C(C)C

In the assay the target is Beta-secretase 1 (Homo sapiens, UniProt P56817).
Chain of Beta-secretase 1 (P56817 whole entry): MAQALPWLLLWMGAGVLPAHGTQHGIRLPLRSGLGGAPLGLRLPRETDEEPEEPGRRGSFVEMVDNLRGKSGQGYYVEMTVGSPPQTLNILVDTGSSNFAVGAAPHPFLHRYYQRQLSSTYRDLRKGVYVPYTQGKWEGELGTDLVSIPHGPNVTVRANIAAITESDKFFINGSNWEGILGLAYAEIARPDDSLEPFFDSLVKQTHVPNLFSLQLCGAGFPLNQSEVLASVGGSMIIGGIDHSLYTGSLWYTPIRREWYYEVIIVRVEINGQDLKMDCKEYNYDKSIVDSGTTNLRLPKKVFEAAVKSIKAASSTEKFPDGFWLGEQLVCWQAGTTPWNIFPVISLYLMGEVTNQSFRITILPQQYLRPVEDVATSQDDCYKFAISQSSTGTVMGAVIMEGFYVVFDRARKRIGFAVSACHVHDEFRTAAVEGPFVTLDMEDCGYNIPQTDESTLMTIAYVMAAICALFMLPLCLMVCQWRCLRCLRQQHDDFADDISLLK

In turn, `CC(C)C[C@H](NC(=O)[C@H](CC(N)=O)NC(=O)[C@@H](NC(=O)[C@@H](N)CCC(=O)O)C(C)C)[C@@H](O)C[C@H](C(=O)N[C@@H](C)C(=O)N[C@@H](CCC(=O)O)C(=O)N[C@@H](Cc1ccccc1)C(=O)O)C(C)C` (H-EVN[X1]AEF-OH) returned an IC50 of 165 nM.
In turn, `CCC(C)[C@H](NC(=O)[C@@H](N)CCC(N)=O)C(=O)N[C@@H](CC(=O)O)C(=O)N[C@@H](CC(C)C)[C@@H](O)C[C@@H](C)C(=O)N[C@@H](C)C(=O)N[C@@H](CCC(=O)O)C(=O)N[C@@H](Cc1ccccc1)C(=O)O` (single isomer, unassigned) showed an IC50 of 45.5 nM.
